Patent publication US11767286B2, “Phenylpropionate compound, preparation method for same, and applications thereof” (SUZHOU PHARMAVAN CO., LTD, priority 2017, dated 2023)
Read-outs that look alike come from different tables or passages of the source.

How the values were obtained:
[1] = tested on: rats with acute cerebral ischemia-reperfusion; experiment: Cerebral infarction area of rats with acute cerebral ischemia-reperfusion (MCAO, suture method); format: in vivo, SD rats; parameters: Cerebral Infarction Area: unit not given here; settings: n=5; for Cerebral Infarction Area: 4 mg/kg iv 2 h after reperfusion (2 h MCAO), sampled 4 h after administration; for inhibition in vivo at 4 mg/kg: Rattus norvegicus, 4 h, 4 mg/kg iv 2 h after reperfusion, vs solvent control, read-out: Percentage of Cerebral Infarction Area Reduction
Experimental: (§1) Trial method: Effects on inflammatory factors and blood viscosity of rats with acute cerebral ischemia-reperfusion: 70 Male SD rats underwent an MACO surgery by a suture method, and after the surgery, alive rats were randomly grouped (into 7 groups, the number of successful animals in each group was guaranteed to be 6 to 8). Blood perfusion was recovered 2 h after MCAO, and corresponding trial medicaments were intravenously injected 2 h after blood reperfusion. 4 hours after the administration, blood was collected and the rats were sacrificed to take out brain tissues. The brain tissues and part of the blood were centrifuged to collect serum which was detected for inflammatory factors, and part of the blood was detected for blood viscosity by using a blood viscometer. Detected indicators: cerebral infarction area; inflammatory factors IL-1β and TNF-α; and blood viscosity.
Table 1 lists results of effects of phenylpropionate compounds (4 mg/kg) on cerebral infarction area of rats with acute cerebral ischemia (n=5).

TNF-α = experiment: Inflammatory factor TNF-α in blood and brain tissues of rats with acute cerebral ischemia-reperfusion; format: in vivo, SD rats; settings: 4 mg/kg iv 2 h after reperfusion; 4 h after administration; n=5
Experimental: as §1
Table 3 lists results of effects of phenylpropionate compounds (4 mg/kg) on inflammatory factors in blood and brain tissues of rats (n=5).

[2] = tested on: platelet aggregation induced with ADP; experiment: Maximum platelet aggregation rate of rabbits, induced with ADP; format: cell-based; settings: rabbit plasma, 4 mg/kg as printed, n=3; for inhibition at 4 mg/kg: Oryctolagus cuniculus, Platelet
Experimental: (§2) Effects on maximum platelet aggregation rate of rabbits: 3 Rabbits were anesthetized, and blood was collected from the heart to obtain 14 parts of plasma for each rabbit (1 ml per part of plasma). 7 Parts were induced with ADP to allow platelet aggregation, and 7 parts were induced with a platelet activating factor. After the induction, a solvent, positive control drug aspirin, and 5 samples to be trialed were separately added to the plasma, and maximum platelet aggregation rate was detected with a platelet aggregation meter. The trials were repeated 3 times, and an average was taken. Detected indicator: maximum platelet aggregation rate.
(§3) Table 4 lists results of effects of phenylpropionate compounds (4 mg/kg) on platelet aggregation rate of rabbits (n=3).

[3] = tested on: platelet aggregation induced with a platelet activating factor; experiment: Maximum platelet aggregation rate of rabbits, induced with PAF; format: cell-based; settings: rabbit plasma, 4 mg/kg as printed; for inhibition at 4 mg/kg: Oryctolagus cuniculus, Platelet, n=3, read-out: Inhibiton rate on Aggregation; for Maximum Aggregation Rate: n=3
Experimental: as §2, §3

[4] = Distribution in brain: plasma and intracerebral concentrations after intravenous injection; format: in vivo; settings: both sexes, rat, rats, 4 mg/kg iv; for Kp at 10 min / Kp at 60 min / Kp at 180 min: brain/plasma, read-out: Brain/Blood Concentration Ratio
Experimental: In this example, Compounds A to E, D-bornyl ferulate, and D-tanshinol borneol ester were measured for distribution in brain. Structures of D-bornyl ferulate (Patent Application No.: 201510243181.5) and D-tanshinol borneol ester compounds are as follows:
Method for testing distribution in brain: 42 rats with a weight range of 200±20 g were taken. The rats were randomly divided into 7 groups, with 6 rats per group, half male and half female. Rats were fasted with free access to water for 12 h and then intravenously injected with 4 mg/kg of a compound. Rats in the 3 groups were sacrificed through femoral artery bleeding and collected for blood 10 min, 60 min, 180 min after administration, respectively. Brains were taken out, 0.2 g was weighted, and 1 mL of pure water was added for homogenizing. The blood samples and brain homogenate samples were stored at −20° C.
Distribution of Compounds A to E, and D-bornyl ferulate and D-tanshinol borneol ester compounds in brain: Data on concentrations of Compounds A to E, D-bornyl ferulate, and D-tanshinol borneol ester in plasma and intracerebral in rats intravenously injected with 4 mg/kg of Compounds A to E, D-bornyl ferulate, and D-tanshinol borneol ester are listed in Table 9.

[5] = brain, read-out: Mean Intracerebral Concentration
[6] = plasma, read-out: Mean Plasma Concentration

SMILES	Cerebral Infarction Area [1]	inhibition in vivo at 4 mg/kg [1] [%]	TNF-α (TNF-α) [ng/L]	inhibition at 4 mg/kg [2] [%]	Maximum Aggregation Rate [2] [%]	inhibition at 4 mg/kg [3] [%]	Maximum Aggregation Rate [3] [%]	Kp at 10 min [4]	Kp at 60 min [4]	Kp at 180 min [4]	concentration at 10 min [4, 5] [ng/g]	concentration at 60 min [4, 5] [ng/g]	concentration at 180 min [4, 5] [ng/g]	concentration at 10 min [4, 6] [ng/mL]	concentration at 60 min [4, 6] [ng/mL]	concentration at 180 min [4, 6] [ng/mL]
COc1cc(CCC(=O)O[C@H]2C[C@H]3CC[C@]2(C)C3(C)C)cc(OC)c1O [Compound C]	19.6 ± 5.38	46.6	634 ± 25.1	56.5	14.3 ± 5.64	52.9	33.6 ± 7.9	2.9	11	2	2630 ± 167	1870 ± 406	188 ± 51.9	906 ± 145	160 ± 49.1	92.2 ± 35.5
COc1cc(CCC(=O)O[C@H]2C[C@H]3CC[C@]2(C)C3(C)C)cc(F)c1O [Compound A]	18.6 ± 2.65	49.3	615 ± 42.9	52.3	15.7 ± 6.31	60.2	28.4 ± 6.4	2.6	5.7	3.2	2640 ± 517	1420 ± 309	311 ± 115	1020 ± 192	252 ± 76.5	97.3 ± 22.7
